Source: PubChem BioAssay AID588618 (The Scripps Research Institute Molecular Screening Center, 2011)

Target: Early growth response protein 1 (Homo sapiens) (UniProt P18146)
Assay: EGR1 protein level change in DLD-1 cells, late-stage follow-up, counter-screen for KLF5 inhibitor project, DLD1 cells, chemiluminescent western blot, powder samples (AID 588618)
Details: 24 h, at 10 µM, stronger effect = higher value

Early growth response protein 1 (Homo sapiens), sequence (P18146 whole entry, looked up): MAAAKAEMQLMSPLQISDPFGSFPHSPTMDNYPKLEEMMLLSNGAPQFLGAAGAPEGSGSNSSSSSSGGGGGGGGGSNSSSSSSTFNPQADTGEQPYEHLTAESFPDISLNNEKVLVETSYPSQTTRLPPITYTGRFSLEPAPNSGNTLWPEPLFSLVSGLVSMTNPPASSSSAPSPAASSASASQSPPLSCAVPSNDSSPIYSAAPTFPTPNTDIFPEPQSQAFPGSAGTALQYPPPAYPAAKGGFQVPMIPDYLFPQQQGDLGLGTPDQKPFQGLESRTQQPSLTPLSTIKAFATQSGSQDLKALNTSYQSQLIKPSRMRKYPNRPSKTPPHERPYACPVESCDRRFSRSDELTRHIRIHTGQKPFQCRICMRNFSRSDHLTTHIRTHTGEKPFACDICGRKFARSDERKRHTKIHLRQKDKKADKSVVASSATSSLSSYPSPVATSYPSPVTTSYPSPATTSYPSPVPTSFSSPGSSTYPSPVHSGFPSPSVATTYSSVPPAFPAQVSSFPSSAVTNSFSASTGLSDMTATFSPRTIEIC

Row | inhibition [%] | SMILES
1 | 19.4 | CN(C(=O)COC(=O)/C=C/c1cccc([N+](=O)[O-])c1)C1CCS(=O)(=O)C1 (stereo not drawn)
2 | 21.1 | CN(C(=O)CNC(=O)/C=C/c1cccc(Cl)c1)C1CCS(=O)(=O)CC1
3 | 14.3 | CN(C(=O)CNC(=O)/C=C/c1cccc(Cl)c1)C1CCS(=O)(=O)C1 (stereo not drawn)
